Experimental data as given in patent US20080021026A1, “BENZOTHIOPHENE INHIBITORS OF RHO KINASE” (priority 2006, published 2008).

biological target: T1, recombinant N-terminal GST-tagged human Rho kinase 2 (ROCK2, amino acids 1-552) (Homo sapiens, UniProt O75116); test: In vitro Rho kinase assay (luciferase-based ATP consumption), ROCK2; assay type: biochemical; settings: recombinant GST-tagged human ROCK2, luciferase-based ATP consumption; read-out: ROCK2 IC50
T1 construct: ROCK2, amino acids 1-552; purchased Invitrogen Inc. PV3759
Method in brief: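 GST-ROCK2 (aa 1-552, 0.82 μg/ml) with 100 μg/ml S6 peptide and 3 µM ATP in Tris pH 7.5 buffer with MgCl2/CaCl2/EGTA/BSA, compound added just after reaction start, 2 h at 30 °C. Remaining ATP read by luciferase luminescence. Efficacy expressed as percentage of H-1152P positive control.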

T1 sequence (O75116 1-552): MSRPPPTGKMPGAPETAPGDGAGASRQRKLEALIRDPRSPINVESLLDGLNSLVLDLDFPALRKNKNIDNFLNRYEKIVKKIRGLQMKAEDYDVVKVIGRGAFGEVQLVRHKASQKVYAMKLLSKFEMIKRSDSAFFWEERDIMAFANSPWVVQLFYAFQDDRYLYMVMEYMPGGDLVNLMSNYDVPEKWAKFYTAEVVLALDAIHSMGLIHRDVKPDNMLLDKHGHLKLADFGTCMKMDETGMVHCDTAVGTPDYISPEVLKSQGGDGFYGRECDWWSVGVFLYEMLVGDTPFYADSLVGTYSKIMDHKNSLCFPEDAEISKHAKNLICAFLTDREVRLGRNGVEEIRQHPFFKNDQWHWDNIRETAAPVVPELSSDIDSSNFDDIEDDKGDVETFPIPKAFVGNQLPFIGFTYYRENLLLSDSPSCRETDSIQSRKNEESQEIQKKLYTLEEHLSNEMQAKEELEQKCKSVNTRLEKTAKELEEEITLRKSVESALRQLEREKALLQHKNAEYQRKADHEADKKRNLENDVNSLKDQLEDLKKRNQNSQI

IC50, < 5 µM:
Cc1c(-c2ccnc(N)n2)sc2ccc(C(=O)NCCCO)cc12 [Example 343, Cc1c(sc2ccc(cc12)C(═O)NCCCO)-c3ccnc(N)n3]
Cc1c(-c2ccnc(N)n2)sc2ccc(C(=O)NCCCN3CCOCC3)cc12 [Example 415, Cc1c(sc2ccc(cc12)C(═O)NCCCN3CCOCC3)-c4ccnc(N)n4]
Cc1c(-c2ccnc(N)n2)sc2ccc(C(=O)N(CCC#N)Cc3ccccc3)cc12 [Example 433, Cc1c(sc2ccc(cc12)C(═O)N(CCC#N)Cc3ccccc3)-c4ccnc(N)n4]
Cc1c(-c2ccnc(N)n2)sc2ccc(C(=O)N(CCO)CCO)cc12 [Example 480, Cc1c(sc2ccc(cc12)C(═O)N(CCO)CCO)-c3ccnc(N)n3]
CCOC(=O)C1CCCN(C(=O)c2ccc3sc(-c4ccnc(N)n4)c(C)c3c2)C1 (stereo not shown) [Example 510, CCOC(═O)C1CCCN(C1)C(═O)c2ccc3sc(c(C)c3c2)-c4ccnc(N)n4]
CNC(=O)c1ccc2sc(-c3ccnc(N)n3)c(C)c2c1 [Example 329, CNC(═O)c1ccc2sc(c(C)c2c1)-c3ccnc(N)n3]
Cc1c(-c2ccnc(N)n2)sc2ccc(C(=O)N(C)C[C@H](O)c3ccc(O)c(O)c3)cc12 [Example 528, CN(C[C@H](O)c1ccc(O)c(O)c1)C(═O)c2ccc3sc(c(C)c3c2)-c4ccnc(N)n4]
COc1ccc(NC(=O)c2ccc3sc(-c4ccnc(N)n4)c(C)c3c2)cc1OC [Example 426, COc1ccc(NC(═O)c2ccc3sc(c(C)c3c2)-c4ccnc(N)n4)cc1OC]
Cc1c(-c2ccnc(N)n2)sc2ccc(C(=O)N(CCO)Cc3ccccc3)cc12 [Example 506, Cc1c(sc2ccc(cc12)C(═O)N(CCO)Cc3ccccc3)-c4ccnc(N)n4]
Cc1cccc(CNC(=O)c2ccc3sc(-c4ccnc(N)n4)c(C)c3c2)c1 [Example 375, Cc1cccc(CNC(═O)c2ccc3sc(c(C)c3c2)-c4ccnc(N)n4)c1]
Cc1c(-c2ccnc(N)n2)sc2ccc(C(=O)NCCc3ccc(O)cc3)cc12 [Example 400, Cc1c(sc2ccc(cc12)C(═O)NCCc3ccc(O)cc3)-c4ccnc(N)n4]
Cc1c(-c2ccnc(N)n2)sc2ccc(C(=O)N(C)CC(C)C)cc12 [Example 467, CC(C)CN(C)C(═O)c1ccc2sc(c(C)c2c1)-c3ccnc(N)n3]
Cc1c(-c2ccnc(N)n2)sc2ccc(C(=O)N(CCC#N)Cc3cccnc3)cc12 [Example 512, Cc1c(sc2ccc(cc12)C(═O)N(CCC#N)Cc3cccnc3)-c4ccnc(N)n4]
Cc1c(-c2ccnc(N)n2)sc2ccc(C(=O)NCCN3CCCCC3)cc12 [Example 387, Cc1c(sc2ccc(cc12)C(═O)NCCN3CCCCC3)-c4ccnc(N)n4]
Cc1c(-c2ccnc(N)n2)sc2ccc(C(=O)NCc3ccc(F)cc3F)cc12 [Example 412, Cc1c(sc2ccc(cc12)C(═O)NCc3ccc(F)cc3F)-c4ccnc(N)n4]
Cc1c(-c2ccnc(N)n2)sc2ccc(C(=O)N(C)C3CCCCC3)cc12 [Example 482, CN(C1CCCCC1)C(═O)c2ccc3sc(c(C)c3c2)-c4ccnc(N)n4]
Cc1c(-c2ccnc(N)n2)sc2ccc(C(=O)N3CC(C)OC(C)C3)cc12 (stereo not shown) [Example 488, CC1CN(CC(C)O1)C(═O)c2ccc3sc(c(C)c3c2)-c4ccnc(N)n4]
COc1ccc(C(=O)CNC(=O)c2ccc3sc(-c4ccnc(N)n4)c(C)c3c2)cc1 [Example 455, COc1ccc(cc1)C(═O)CNC(═O)c2ccc3sc(c(C)c3c2)-c4ccnc(N)n4]
COc1ccc(CNC(=O)c2ccc3sc(-c4ccnc(N)n4)c(C)c3c2)cc1O [Example 451, COc1ccc(CNC(═O)c2ccc3sc(c(C)c3c2)-c4ccnc(N)n4)cc1O]
Cc1c(-c2ccnc(N)n2)sc2ccc(C(=O)NC(C)Cc3ccncc3)cc12 (stereo not shown) [Example 399, CC(Cc1ccncc1)NC(═O)c2ccc3sc(c(C)c3c2)-c4ccnc(N)n4]
Cc1c(-c2ccnc(N)n2)sc2ccc(C(=O)NCCCNC(=O)OC(C)(C)C)cc12 [Example 443, Cc1c(sc2ccc(cc12)C(═O)NCCCNC(═O)OC(C)(C)C)-c3ccnc(N)n3]
CCC(CO)NC(=O)c1ccc2sc(-c3ccnc(N)n3)c(C)c2c1 (stereo not shown) [Example 353, CCC(CO)NC(═O)c1ccc2sc(c(C)c2c1)-c3ccnc(N)n3]
Cc1ccc(CNC(=O)c2ccc3sc(-c4ccnc(N)n4)c(C)c3c2)cc1 [Example 380, Cc1ccc(CNC(═O)c2ccc3sc(c(C)c3c2)-c4ccnc(N)n4)cc1]
Cc1c(-c2ccnc(N)n2)sc2ccc(C(=O)NC3CC3)cc12 [Example 333, Cc1c(sc2ccc(cc12)C(═O)NC3CC3)-c4ccnc(N)n4]
Cc1c(-c2ccnc(N)n2)sc2ccc(C(=O)N3CCCC(CO)C3)cc12 (stereo not shown) [Example 486, Cc1c(sc2ccc(cc12)C(═O)N3CCCC(CO)C3)-c4ccnc(N)n4]
Cc1c(-c2ccnc(N)n2)sc2ccc(C(=O)NC(C)CO)cc12 (stereo not shown) [Example 344, CC(CO)NC(═O)c1ccc2sc(c(C)c2c1)-c3ccnc(N)n3]
Cc1c(-c2ccnc(N)n2)sc2ccc(C(=O)NCC3(O)CCCCC3)cc12 [Example 438, Cc1c(sc2ccc(cc12)C(═O)NCC3(O)CCCCC3)-c4ccnc(N)n4]
CCOC(=O)CC1C(=O)NCCN1C(=O)c1ccc2sc(-c3ccnc(N)n3)c(C)c2c1 (stereo not shown) [Example 529, CCOC(═O)CC1N(CCNC1═O)C(═O)c2ccc3sc(c(C)c3c2)-c4ccnc(N)n4]
Cc1c(-c2ccnc(N)n2)sc2ccc(C(=O)N(C)C)cc12 [Example 459, CN(C)C(═O)c1ccc2sc(c(C)c2c1)-c3ccnc(N)n3]
Cc1c(-c2ccnc(N)n2)sc2ccc(C(=O)NCCc3c[nH]c4ccccc34)cc12 [Example 435, Cc1c(sc2ccc(cc12)C(═O)NCCc3c[nH]c4ccccc34)-c5ccnc(N)n5]
Cc1c(-c2ccnc(N)n2)sc2ccc(C(=O)NCc3ccccn3)cc12 [Example 365, Cc1c(sc2ccc(cc12)C(═O)NCc3ccccn3)-c4ccnc(N)n4]
Cc1c(-c2ccnc(N)n2)sc2ccc(C(=O)NC(CO)C(C)C)cc12 (stereo not shown) [Example 362, CC(C)C(CO)NC(═O)c1ccc2sc(c(C)c2c1)-c3ccnc(N)n3]
Cc1c(-c2ccnc(N)n2)sc2ccc(C(=O)NCc3ccccc3)cc12 [Example 363, Cc1c(sc2ccc(cc12)C(═O)NCc3ccccc3)-c4ccnc(N)n4]
Cc1c(-c2ccnc(N)n2)sc2ccc(C(=O)N(C)Cc3ccccc3)cc12 [Example 492, CN(Cc1ccccc1)C(═O)c2ccc3sc(c(C)c3c2)-c4ccnc(N)n4]
CCN(C(=O)c1ccc2sc(-c3ccnc(N)n3)c(C)c2c1)C1CCCCC1 [Example 493, CCN(C1CCCCC1)C(═O)c2ccc3sc(c(C)c3c2)-c4ccnc(N)n4]
Cc1c(-c2ccnc(N)n2)sc2ccc(C(=O)N3CCSC3)cc12 [Example 471, Cc1c(sc2ccc(cc12)C(═O)N3CCSC3)-c4ccnc(N)n4]

IC50, > 5 µM:
Cc1c(-c2ccnc(N)n2)sc2ccc(C(=O)N(C)CCc3ccccn3)cc12 [Example 501, CN(CCc1ccccn1)C(═O)c2ccc3sc(c(C)c3c2)-c4ccnc(N)n4]
Cc1ccc(C)c(N2CCN(C(=O)c3ccc4sc(-c5ccnc(N)n5)c(C)c4c3)CC2)c1 [Example 539, Cc1ccc(C)c(c1)N2CCN(CC2)C(═O)c3ccc4sc(c(C)c4c3)-c5ccnc(N)n5]
Cc1c(-c2ccnc(N)n2)sc2ccc(C(=O)N3CCCCC3CCO)cc12 (stereo not shown) [Example 497, Cc1c(sc2ccc(cc12)C(═O)N3CCCCC3CCO)-c4ccnc(N)n4]
Cc1c(-c2ccnc(N)n2)sc2ccc(C(=O)N3CCN(C(=O)OC(C)(C)C)C[C@H]3CO)cc12 [Example 561, Cc1c(sc2ccc(cc12)C(═O)N3CCN(C[C@H]3CO)C(═O)OC(C)(C)C)-c4ccnc(N)n4]
Cc1c(-c2ccnc(N)n2)sc2ccc(C(=O)N(C)C(Cc3ccccc3)c3ccccc3)cc12 (stereo not shown) [Example 557, CN(C(Cc1ccccc1)c2ccccc2)C(═O)c3ccc4sc(c(C)c4c3)-c5ccnc(N)n5]
Cc1c(-c2ccnc(N)n2)sc2ccc(C(=O)NC(C)C(C)C)cc12 (stereo not shown) [Example 349, CC(C)C(C)NC(═O)c1ccc2sc(c(C)c2c1)-c3ccnc(N)n3]
Cc1ccc([C@H](C)NC(=O)c2ccc3sc(-c4ccnc(N)n4)c(C)c3c2)cc1 [Example 394, C[C@H](NC(═O)c1ccc2sc(c(C)c2c1)-c3ccnc(N)n3)c4ccc(C)cc4]
Cc1c(-c2ccnc(N)n2)sc2ccc(C(=O)N3CCN(c4ccccn4)CC3)cc12 [Example 514, Cc1c(sc2ccc(cc12)C(═O)N3CCN(CC3)c4ccccn4)-c5ccnc(N)n5]
Cc1c(-c2ccnc(N)n2)sc2ccc(C(=O)N3CCN(c4ccc(C(F)(F)F)cn4)CC3)cc12 [Example 568, Cc1c(sc2ccc(cc12)C(═O)N3CCN(CC3)c4ccc(cn4)C(F)(F)F)-c5ccnc(N)n5]
Cc1c(-c2ccnc(N)n2)sc2ccc(C(=O)N3CCN(c4cccc(C(F)(F)F)c4)CC3)cc12 [Example 566, Cc1c(sc2ccc(cc12)C(═O)N3CCN(CC3)c4cccc(c4)C(F)(F)F)-c5ccnc(N)n5]
Cc1cccc(N2CCN(C(=O)c3ccc4sc(-c5ccnc(N)n5)c(C)c4c3)CC2C)c1 (stereo not shown) [Example 535, CC1CN(CCN1c2cccc(C)c2)C(═O)c3ccc4sc(c(C)c4c3)-c5ccnc(N)n5]
Cc1c(-c2ccnc(N)n2)sc2ccc(C(=O)N(C)Cc3cccc4ccccc34)cc12 [Example 553, CN(Cc1cccc2ccccc12)C(═O)c3ccc4sc(c(C)c4c3)-c5ccnc(N)n5]
Cc1ccc([C@@H](C)NC(=O)c2ccc3sc(-c4ccnc(N)n4)c(C)c3c2)cc1 [Example 395, C[C@@H](NC(═O)c1ccc2sc(c(C)c2c1)-c3ccnc(N)n3)c4ccc(C)cc4]
